Results: publication PMC9960696, “Functional Expression of Recombinant Candida auris Proteins in Saccharomyces cerevisiae Enables Azole Susceptibility Evaluation and Drug Discovery” (Journal of Fungi, 2023)

Target: T1, CauErg11-6×His (Candidozyma auris, UniProt A0A2H1A309)
T1 construct: gene B9J08_03698; full-length, C-terminal GGR linker and 6xHis kept; expressed in S. cerevisiae ADΔΔ (Y2767, native ERG11 deleted); DM-solubilised, Ni-NTA partially purified; mutant Y132F in strain Y2768
Assay: type II difference spectra titration
Format: binding
Description: type II difference spectra titration on CauErg11-6×His

T1 sequence (A0A2H1A309 entry or part of it): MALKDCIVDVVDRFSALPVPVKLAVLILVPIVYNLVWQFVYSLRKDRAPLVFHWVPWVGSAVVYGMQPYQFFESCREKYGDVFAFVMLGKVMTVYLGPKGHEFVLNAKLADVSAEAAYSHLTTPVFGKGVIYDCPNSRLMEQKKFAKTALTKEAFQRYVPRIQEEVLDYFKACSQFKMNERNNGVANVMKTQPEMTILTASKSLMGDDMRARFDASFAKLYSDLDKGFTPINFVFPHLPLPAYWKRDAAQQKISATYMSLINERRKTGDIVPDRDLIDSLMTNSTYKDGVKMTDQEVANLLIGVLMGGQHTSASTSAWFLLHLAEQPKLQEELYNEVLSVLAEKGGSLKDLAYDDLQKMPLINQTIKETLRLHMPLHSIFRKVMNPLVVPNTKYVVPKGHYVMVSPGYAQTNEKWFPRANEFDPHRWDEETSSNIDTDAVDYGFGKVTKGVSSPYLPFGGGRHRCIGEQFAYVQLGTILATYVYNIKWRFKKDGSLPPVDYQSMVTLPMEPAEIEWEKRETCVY

Row | SMILES | Kd [nM]
1 | C[C@@H](c1ncncc1F)[C@](O)(Cn1cncn1)c1ccc(F)cc1F [VRC, Voriconazole] | 740
2 | C[C@@H](c1nc(-c2ccc(C#N)cc2)cs1)[C@](O)(Cn1cncn1)c1cc(F)ccc1F [ISA, Isavuconazole] | 200
3 | CC[C@@H]([C@H](C)O)n1ncn(-c2ccc(N3CCN(c4ccc(OC[C@@H]5CO[C@@](Cn6cncn6)(c6ccc(F)cc6F)C5)cc4)CC3)cc2)c1=O [POS, Posaconazole] | 340
